For the assay, the system named is P-chk1 (Ser 345)/chk1 in HNDF cells. In words: P-chk1/chk1 ratio by western blotting, HNDF. The assay is classed as cell-based, human. The following applies: second blot (taken as HNDF). The method, then: (Sigma, #N9162) for a further 2 h. […]
(Ser 345) and chk1 were detected. Ponceau S staining was used to monitor loading. […]

The values below come from publication PMC5856786, “A DHODH inhibitor increases p53 synthesis and enhances tumor cell killing by p53 degradation blockage” (Nature Communications, 2018).

Take `O=C(NC1CCCc2c1cnn2-c1ccccc1F)c1ccccn1` (stereo not drawn) [HZ00]: the P-chk1/chk1 is reported as 0.98 (HZ00 10 µM, 24 h); 0.89 (HZ00 10 µM, 48 h); 1.13 (HZ00 10 µM, 72 h); 1.08 (HZ00 20 µM, 24 h); 1.05 (HZ00 20 µM, 48 h); 1.07 (HZ00 20 µM, 72 h).
